According to US20040259853A1, “Methods for preventing acute clinical vascular events in a subject” (The Trustees of Columbia University, priority 2000, published 2004):
Where a SMILES comes first, the peptide text is derived from it. [ ]: non-standard residue; d: D form. Nle = CCCC[C@H](N)C(=O)O

What was measured:
[1] = test system: ABCA1 protein; experiment: ABCA1 immunoblot of total and cell-surface protein in cholesterol-loaded macrophages; type: cell-based, mouse; conditions: for decrease in ABCA1 protein in free cholesterol-loaded macrophages: 50 μM; for decrease in ABCA1 protein in FC-loaded macrophages: calpeptin 40 μM, PD150606 25 μM (data not shown)
Procedure: Macrophages were pre-incubated for 14 h with 50 μg/ml acetyl-LDL in DMEM, 0.2% BSA, in the absence (CE) or presence (FC) of 58035. The cells were then incubated for 5 h with 100 μg/ml acetyl-LDL in DMEM, 0.2% BSA, in the absence or presence of 58035, respectively, with no further additions (Control) or in the presence of 10 μg/ml cycloheximide, 50 μM ALLN, or 50 μM lactacystin as indicated. Aliquots of cell lysates were then assayed for ABCA1 and β-actin protein by immunoblot analysis.
Macrophages were pre-incubated for 14 h with 50 μg/ml acetyl-LDL in DMEM, 0.2% BSA, in the absence (CE) or presence (FC) of 58035. […] Aliquots of total cell protein (top panel) or cell-surface protein (bottom panel) were then subjected to immunoblot analysis for ABCA1 and the standards β-actin or β1-integrin.
Macrophage monolayers in 35-mm dishes were washed with ice-cold PBS 3 times and then incubated with ice-cold PBS containing 0.5 mg/ml NHS—SS-biotin (Pierce) for 30 minutes at 4° C. After washing 5 times with ice-cold PBS containing 20 mM Tris-HCl, pH 8.0, the cells were scraped into PBS and pelleted by centrifugation. The pelleted macrophages were lysed in 50 μl RIPA buffer (0.5% sodium deoxycholate, 0.1% SDS, 1% Triton X-100, 20 mM Tris, 150 mM NaCl, and 5 mM EDTA, pH 8) containing 1 mM PMSF. […] of the lysate were subjected directly to 4-20% gradient SDS-polyacrylamide gel electrophoresis (SDS-PAGE) for determination of total ABCA1. The rest of the cell lysate was affinity-purified to isolate biotinylated proteins. Briefly, the cell lysates were diluted to 150 μl in RIPA buffer and incubated with 50 μl immobilized streptavidin agarose (Pierce), which was pre-washed three times with RIPA buffer at 0° C. for 2 h with gentle shaking. The agarose was pelleted by centrifugation using a microcentrifuge at 5,000 rpm for 2 min; the pellet was resuspended in 1 ml RIPA buffer, and the process was repeated 5 times. The agarose was resuspended 30 μl SDS-PAGE loading buffer containing 330 mM β-mercaptoethanol at 37^6C for 15 min and subjected to SDS-PAGE as above. ABCA1 and β-integrin were detected by Western blot using anti-ABCA1 and anti-β-integrin anti-sera. The blots were reprobed with anti-β-actin antibody, which detected no actin signal, thus verifying that no cytosolic protein was biotinylated by the procedure.
Peritoneal macrophages were lysed in RIPA buffer containing 1 mM PMSF. Nuclei were removed by centrifugation at 3000×g for 10 min at 4° C. […] For Western blot detection of ABCA1, anti-ABCA1 antiserum was used. Signals were detected using HRP-conjugated secondary anti-bodies (Bio-Rad) and ECL (Amersham Pharmacia Biotech). The membranes were reprobed with anti-β actin monoclonal antibody or anti-β1-integrin anti-serum for the proper internal controls. The relative intensities of the bands were determined by densitometry.

[2] = test system: unfolded protein response (UPR); experiment: Immunoblot analysis of UPR markers (CHOP, PERK, IRE1α, XBP-1) in macrophages; conditions: 58035 alone, 5 h (FIG. 16B, lane 2)
Procedure: For detection of PERK, nuclei-free cell extracts were immunoprecipitated with anti-PERK antiserum and then immunoblotted, while for detection of ATF-4 and CHOP, immunoblots were performed on nuclear extracts. Lamin B, a nuclear protein, was used as the loading control.
Immunoprecipitation and immunoblot detection for IRE1α and PERK were conducted as described by Harding et al. (35). Immunoblot analyses of XBP-1, ATF4, and CHOP were carried out as described previously (36,38) with minor modifications. Briefly, cells were lysed in RIPA buffer to prepare whole-cell lysates or to prepare nuclei by centrifugation. The whole-cell lysates or nuclei were resuspended in 2×SDS-PAGE loading buffer and incubated at 95° C. for 10 min. Whole cell (100 μg) or nuclear lysates (20 μg) were electrophoresed on 4-20% gradient SDS-PAGE gels and electrotransferred to 0.22-μm nitrocellulose membrane using a Bio-Rad mini-transfer tank. After incubation with primary antibodies, the protein bands were detected with HRP-conjugated secondary antibodies (Bio-Rad) and ECL (Amersham Pharmacia Biotech). The membranes were reprobed with an anti-β-actin monoclonal antibody or an anti-lamin B serum to control for differences in loading.

[3] = test system: ABCA1-mediated cholesterol efflux; experiment: 3H-cholesterol efflux to apoA-I from free cholesterol-loaded macrophages; type: cell-based, mouse; conditions: for cholesterol efflux to apoA-I from FC-loaded NPC+/− macrophages: 200 μM, 18 h apoA-1 incubation (FIG. 9D)
Procedure: Peritoneal macrophages from C57 mice were incubated for 5 h with 100 μg/ml ^3H-cholesterol-labeled acetyl-LDL in DMEM, 0.2% BSA, in the presence of 10 μg/ml 58035.
Acetyl-LDL (800 μg) was incubated with 10 μCi ^3H-cholesterol for 30 min at 37° C., followed by addition of 8 ml of DMEM, 0.2% BSA. The macrophages were incubated with this medium for 5 h, washed 3 times with PBS, and then incubated with DMEM, 0.2% BSA for 15 min at 37° C. After washing with PBS, the macrophages were incubated with DMEM, 0.2% BSA, containing either 15 μg/ml apoAI or 20 μg/ml HDL2. At the indicated time points, 100 μl of media was removed and centrifuged for 5 min at 14,000 rpm to pellet cellular debris. The radioactivity in this fraction of media was quantitated by liquid scintillation counting. After the last time point, the remainder of the media was removed, and the cells were dissolved in 0.5 ml of 0.1 N NaOH containing 0.5% sodium dodecylsulfate (5 h at room temperature). A 100 μl-aliquot of the cell lysate was counted, and the percent efflux was calculated as (media cpm)[…](cell +media cpm)×100. Total protein in the cell lysate was determined using the Bio-Rad DC protein assay kit. Note that there was no statistical difference in cellular cpm or protein between cholesteryl ester- and free cholesterol-loaded macrophages.

[4] = test system: ABCA1 transporter activity (phospholipid efflux to apoA-I); experiment: 3H-phospholipid efflux to apoA-I from free cholesterol-loaded macrophages; type: cell-based, mouse; conditions: 15 min at 37° C.
Procedure: Aliquots of free cholesterol-loaded cells were incubated for 15 min at 37° C. in the absence or presence of 0.5% or 0.2% […] (CD). This treatment removes about 30% of total cellular cholesterol. All cells were then chased with media containing 15 μg/ml apoA-I for 3.33 h and phospholipid efflux was measured as in FIG. 6C.
Macrophages were labeled with ^3H-choline (5 μCi/ml) in DMEM, 10% FBS, for 24 h. After washing three times with PBS, the macrophages were incubated with 100 μg/ml acetyl-LDL+58035 in DMEM, 0.2% BSA, for 5 h. The cells were then incubated with 15 μg/ml apoA-1 in DMEM, 0.2% BSA, for the indicated time periods. ^3H-choline-containing phospholipids in aliquots of the medium were extracted in chloroform:methanol (2:1, v/v), and those remaining in the cells in hexane:isopropyl alcohol (3:2, v/v). The radioactivity was measured by scintillation counting.

For `CCCC[C@@H](C=O)NC(=O)[C@H](CC(C)C)NC(=O)[C@H](CC(C)C)NC(C)=O` [ALLN] (Ac-Leu-Leu-[Nle]-aldehyde), the “decrease in ABCA1 protein in free cholesterol-loaded macrophages” value ([1]; 5 h (FIG. 8B)) was “blocked the decrease in ABCA1”.
`O=C(O)/C(S)=C/c1ccc(I)cc1` [PD150606] was tested, and the “decrease in ABCA1 protein in FC-loaded macrophages” value [1] was “did not affect the decrease in ABCA1”.
For `CCCC[C@@H](C=O)NC(=O)[C@H](CC(C)C)NC(=O)OCc1ccccc1` [calpeptin], the “decrease in ABCA1 protein in FC-loaded macrophages” value [1] was “did not affect the decrease in ABCA1”.
With `CCCCCCCCCC[Si](C)(C)CCC(=O)NC(Cc1ccc(C)cc1)c1ccccc1` (stereo not shown) [compound 58035, 3-[decyldimethylsilyl]-N-[2-(4-methylphenyl)-1-phenylethyl] propanamide] the “PERK activation in macrophages” value [2] was “partially activate PERK”.
With `C[C@@H]1C[C@@H]([C@H](O)CC2CC(=O)NC(=O)C2)C(=O)[C@@H](C)C1` [cycloheximide] the “decrease in ABCA1 protein in free cholesterol-loaded cells” value ([1]; 10 μg/ml cycloheximide, 5 h (FIG. 8B)) was “insensitive”.
`COc1ccc(Cl)cc1C(=O)NCCc1ccc(S(=O)(=O)NC(=O)NC2CCCCC2)cc1` [glyburide] was tested, and the “cholesterol efflux to apoA-I from FC-loaded NPC+/− macrophages” value [3] was “effectively blocked”.
With `CN(C)CCCN1c2ccccc2CCc2ccccc21` [imipramine] the “ABCA1 protein expression in free cholesterol-loaded cells” value ([1]; low concentrations) was “markedly enhance”, the “induction of cholesterol efflux to ApoA-1” value ([3]; FC-loaded macrophages (FIGS. 11A, 11B)) was “marked ability to induce cholesterol efflux to ApoA-1” and the “restoration of ABCA1-dependent efflux” value ([3]; optimal low doses, FC-loaded macrophages (FIG. 12A)) was “restored ABCA1-dependent efflux”.
For `CC(=O)N[C@@H](CSC(=O)[C@]1([C@@H](O)C(C)C)NC(=O)[C@H](C)[C@@H]1O)C(=O)O` [lactacystin], the “decrease in ABCA1 protein in free cholesterol-loaded macrophages” value ([1]; 5 h (FIG. 8B)) was “blocked the decrease in ABCA1”.
`[Na+].[Na+].[Na+].[O]=[V]([O-])([O-])[O-]` [ortho-vanadate, sodium orthovanadate] was tested, and the “cholesterol efflux to apoA-I from FC-loaded NPC+/− macrophages” value [3] was “effectively blocked”.
For methyl-β-cyclodextrin, the “defect in phosphatidylcholine efflux to apoA-I of free cholesterol-loaded cells” value ([4]; 0.5% or 0.2% (FIG. 6E)) was “reversed” and the “removal of total cellular cholesterol” value ([4]; 0.5% or 0.2%, FC-loaded cells) was “about 30%”.
